Assay [1] has as its system MT4. The experiment in a line: Inhibition of growth in uninfected MT-4 cells in MTM assay. Type of assay: functional, cell-based. The note with it: Homo sapiens.
Assay [2] addresses T1, Human immunodeficiency virus type 1 reverse transcriptase (Human immunodeficiency virus 1, UniProt Q72547). Kind of assay: In vitro inhibitory concentration against reverse transcriptase of HIV-1 (RT).
Assay [3] concerns C8166. The experiment in a line: Inhibition of p24 antigen formation in infected C8166-cells. The note with it: Homo sapiens. Type of assay: functional, cell-based.
The test system of assay [4] is C8166. Kind of assay: Inhibition of syncytia formation in infected C8166-cells. Type of assay: functional, cell-based. The note with it: Homo sapiens.
The test system of assay [5] is Human immunodeficiency virus 1. The experiment in a line: (§1) Inhibition of HIV-1 (strain A17)-infected MT-4 cells. It counts as functional, organism-based. The note with it: Human immunodeficiency virus 1, MT4.
Assay [6] concerns the target T1, Human immunodeficiency virus type 1 reverse transcriptase. The experiment in a line: Inhibition of reverse transcriptase of HIV-1 (strain RF)-infected MT-4 cells in RPMI 1640 growth medium in MTM assay; Toxic. It counts as cell-based. The note with it: mt4.
For assay [7], the system named is MT4. The description is as §1. It counts as functional, cell-based. The note with it: Homo sapiens.
The target of assay [8] is T1, Human immunodeficiency virus type 1 reverse transcriptase. Kind of assay: Inhibition of reverse transcriptase activity of HIV-1 in the presence of [alpha35 S] TTP as cosubstrate.

“And” between values parts separate entries of the source, which are not always exact repeats. Identical values can stand only once.

What is called IC50 is the concentration that inhibits the measured activity by half. As usually defined, the EC50 is the concentration that produces a half-maximal response. A high value points to a less potent agent.

As for `COc1ccc2c(C)nc(CCCCCCC(=O)c3ccccc3)n2n1`, the IC50 in the assay on MT4 [1] amounted to 250000 nM; in assay [2] it was 640 nM.
On the same counts, the results for `CSc1ccc2c(C)nc(CCCCCCC(=O)c3ccccc3)n2n1` are 27000 nM and 80 nM.
On to `Cc1nc(CCCCCCC(O)c2ccccc2)n2nc(-n3ccnc3)ccc12` (stereo unspecified), for which the results for the IC50 (in the assay with MT4 [1]; in assay [2]) were 26000 nM and 230 nM, respectively. Besides, the EC50 in the assay with C8166 [3] turned out to be 4 nM; in the assay with C8166 [4] it was 6 nM.
`Cc1nc(CCCCCCC(=O)c2ccccc2)n2nc(-n3ccnc3C)ccc12`: the IC50 worked out at 260000 nM in the assay on MT4 [1] and 2500 nM in assay [2].
`CCc1nc(CCCCCCC(=O)c2ccccc2)n2nc(Cl)ccc12`: the IC50 was determined as 25000 nM in the assay with MT4 [1] and 2000 nM in assay [2].
`Cc1nc(CCCCCOC(=O)C2CCCC2)n2nc(Cl)ccc12`: the IC50 in the assay on MT4 [1] amounted to 250000 nM; in assay [2], 22000 nM.
In the case of `Cc1nc(CCCCCC(=O)c2ccccc2)n2nc(Cl)ccc12`, the IC50 turned out to be 250000 nM with MT4 [1] and 4800 nM in assay [2].
For `Cc1nc(CCCCCCC(=O)c2ccccc2)n2nc(Cl)ccc12`, the IC50 with MT4 [1] worked out at 25000 nM; in assay [2] it was 840 nM. Further, the EC50 in the assay on C8166 [3] and with C8166 [4] was 80 nM in each case.
Regarding `CNc1ccc2c(C)nc(CCCCCCC(=O)c3ccccc3)n2n1`, the IC50 with MT4 [1] was 25000 nM; in assay [2] it was 3400 nM.
Regarding `Cc1nc(CCCCCCC(O)c2ccccc2)n2nc(Cl)ccc12` (stereo unspecified), the values for the IC50 (in the assay with MT4 [1]; in assay [2]) were 250000 nM and 380 nM, respectively. Moreover, the EC50 in the assay with C8166 [3] and in the assay with C8166 [4] was less than 80 nM in each case.
On to `O=C(CCCCCCc1ncc2ccc(Cl)nn12)c1ccccc1`, for which the values for the IC50 (in the assay on MT4 [1]; in assay [2]) were 25000 nM and 340 nM, respectively. The EC50 in the assay on C8166 [3] amounted to 340 nM; in the assay on C8166 [4] it was 210 nM.
Consider `Cc1nc(CCCCCCC(=O)c2ccccc2)n2nc(-n3cccc3)ccc12`, for which the IC50 came to 26000 nM with MT4 [1] and 80 nM in assay [2]. The EC50 in the assay on C8166 [3] came to 5 nM; with C8166 [4], 7 nM.
As to `Cc1nc(CCCCCCC(=O)c2ccccc2)n2nc(-n3cncn3)ccc12`, the IC50 turned out to be 26000 nM in the assay on MT4 [1] and 100 nM in assay [2].
In assay [2], `CC(=O)OCCCCCc1nc(C)c2ccc(Cl)nn12` showed an IC50 of 110000 nM.
With `Cc1nc(CCCCCCC(=O)c2ccccc2)n2nc(-n3cnnc3)ccc12`, the IC50 came to 260000 nM with MT4 [1] and 2600 nM in assay [2].
On the same counts, the results for `Cc1nc(CCCCCCCC(=O)c2ccccc2)n2nc(Cl)ccc12` are 250000 nM and 3000 nM.
With `Cc1cn(-c2ccc3c(C)nc(CCCCCCC(=O)c4ccccc4)n3n2)cn1`, the IC50 stood at 260000 nM in the assay on MT4 [1] and 550 nM in assay [2]. Also, the EC50 with C8166 [3] was 160 nM; in the assay on C8166 [4] it was 65 nM.
`Cc1nc(CCCCCCC(=O)c2ccccc2)n2nc(N3CCCCC3)ccc12` had an IC50 in assay [2] of 6700 nM.
As for `Cc1nc(CCCCCC(=O)Cc2ccccc2)n2nc(Cl)ccc12`, the values for the IC50 (with MT4 [1]; in assay [2]) were 28000 nM and 3900 nM, respectively.
`Cc1nc(CCCCCO)n2nc(Cl)ccc12`: the IC50 in assay [2] was greater than 100000 nM.
For the compound `Cc1nc(CCCCCCC(=O)c2ccccc2)n2nc(-n3ccnc3)ccc12`, the figures for the IC50 (in the assay on MT4 [1]; in assay [2]) were 26000 nM and 0.6 nM, respectively. Also, the figures for the EC50 (with C8166 [3]; in the assay with C8166 [4]; in assay [5]) were 5 nM, 0.6 nM and 1900 nM, respectively.
With `Cc1nc(CCCCCCC(=O)c2ccccc2)n2nc(-n3cccn3)ccc12`, the IC50 is 26000 nM with MT4 [1] and 3400 nM in assay [2].
As to `Cc1nc(CCCCCOC(=O)c2ccccc2)n2nc(Cl)ccc12`, the IC50 was greater than 25000 nM in the assay with MT4 [1]; 1340 nM and 1300 nM in assay [2]. Also, the EC50 in the assay on C8166 [3] amounted to 1100 nM; in the assay with C8166 [4], 1600 nM.
Regarding `Cc1nc(CCCCCCC(=O)c2ccccc2)n2nc(-n3nccn3)ccc12`, the values for the IC50 (with MT4 [1]; in assay [2]) were 260000 nM and 1300 nM, respectively.
Turning to `Cc1nc(CCCCCCC(=O)c2ccccc2)n2nc(N)ccc12`, the figures for the IC50 (with MT4 [1]; in assay [2]) were 30000 nM and 3000 nM, respectively.
On the same counts, the results for `Cc1nc(CCCCCCC(=O)c2ccccc2)n2ncccc12` are 280000 nM and 560 nM.
With `Cc1nc(CCCCCCCc2ccccc2)n2nc(Cl)ccc12`, the IC50 in the assay with MT4 [1] was 250000 nM; in assay [2], 14000 nM.
As to `Cc1nc(CCCCCCC(=O)c2ccccc2)n2nc(N3CCCC3)ccc12`, the IC50 in the assay with MT4 [1] was less than 30 nM; in assay [2], 50 nM. Moreover, in assay [6], the EC50 entry is “Toxic”.
`Cc1nc(CCCCCCC(=O)c2ccccc2)n2nc(N(C)C)ccc12`: the values for the IC50 (in the assay with MT4 [1]; in assay [2]) were 27000 nM and 270 nM, respectively.
In assay [2], `CC(C)c1nc(CCCCCCC(=O)c2ccccc2)n2nc(Cl)ccc12` gave an IC50 of 110000 nM.
Turning to `Cc1nc(CCCCCCC(=O)c2ccccc2)n2nc(-n3cncc3C)ccc12`, the IC50 came to 26000 nM in the assay on MT4 [1] and 100 nM in assay [2]. In addition, the figures for the EC50 in the assay on C8166 [3] and in the assay with C8166 [4] were 30 nM and 10 nM, respectively.
`Cc1nc(CCCCCCC(=O)c2ccccc2)n2nc(-n3ccnn3)ccc12`: the values for the IC50 (in the assay on MT4 [1]; in assay [2]) were 26000 nM and 640 nM, respectively.
For `Cc1nc(CCCCCOCc2ccccc2)n2nc(Cl)ccc12`, the IC50 in the assay with MT4 [1] amounted to 290000 nM; in assay [2], 2300 nM. For the same compound, the values for the EC50 in the assay on C8166 [3] and with C8166 [4] were 380 nM and 580 nM, respectively.
In the case of `CCc1cc(NCc2nc3c(Cl)ccc(Cl)c3o2)c(O)nc1C` [L-697661], the results for the EC50 in the assay on C8166 [3], in the assay on C8166 [4] and with MT4 [7] were 7 nM, 7 nM and greater than 10000 nM, respectively. Also, the IC50 in assay [8] was determined as 850 nM.
For `Cc1cn([C@H]2C[C@H](N=[N+]=[N-])[C@@H](CO)O2)c(=O)[nH]c1=O` [ZIDOVUDINE], the EC50 in the assay on C8166 [3] stood at 20 nM; in the assay on C8166 [4], 30 nM; in assay [5], 10 nM.
